Measured values taken from PMC9097471, “Development of Selective Phosphatidylinositol 5-Phosphate 4-Kinase γ Inhibitors with a Non-ATP-competitive, Allosteric Binding Mode” (Journal of Medicinal Chemistry, 2022).

Key:
[1] = test system: PI5P4Kγ; design: method as in ref 30 (1), ref 23 (2); settings: 32P-ATP/PI5P incorporation; ref 30 (1), ref 23 (2); cited from earlier work
[2] = target: WNK1 (Homo sapiens, UniProt Q9H4A3); assay: Kinase panel, radiometric 33P filter binding; settings: read-out: % activity remaining
Source text: (§1) filter binding assay using 33P-g-ATPat the MRC PPU International Centre for Kinase Profiling, University of

[3] = target: JAK3 (Homo sapiens, UniProt P52333); assay: Kinase panel, radiometric 33P filter binding; settings: read-out: % activity remaining
[4] = target: SRPK1 (Homo sapiens, UniProt Q96SB4); assay: Kinase panel, radiometric 33P filter binding; settings: read-out: % activity remaining
Source text: as §1

[5] = target: MLK1 (Homo sapiens, UniProt P80192); assay: Kinase panel, radiometric 33P filter binding; settings: read-out: % activity remaining
Source text: as §1

[6] = target: PINK (Tribolium castaneum, UniProt D6WMX4); assay: biochemical; settings: read-out: % activity remaining
[7] = target: NEK6 (Homo sapiens, UniProt Q9HC98); assay: Kinase panel, radiometric 33P filter binding; settings: read-out: % activity remaining
Source text: as §1
Kinase % activity remaining s.d.

[8] = target: EPH-B1 (Homo sapiens, UniProt P54762); assay: Kinase panel, radiometric 33P filter binding; settings: read-out: % activity remaining
Sequence of EPH-B1 (P54762 18-984): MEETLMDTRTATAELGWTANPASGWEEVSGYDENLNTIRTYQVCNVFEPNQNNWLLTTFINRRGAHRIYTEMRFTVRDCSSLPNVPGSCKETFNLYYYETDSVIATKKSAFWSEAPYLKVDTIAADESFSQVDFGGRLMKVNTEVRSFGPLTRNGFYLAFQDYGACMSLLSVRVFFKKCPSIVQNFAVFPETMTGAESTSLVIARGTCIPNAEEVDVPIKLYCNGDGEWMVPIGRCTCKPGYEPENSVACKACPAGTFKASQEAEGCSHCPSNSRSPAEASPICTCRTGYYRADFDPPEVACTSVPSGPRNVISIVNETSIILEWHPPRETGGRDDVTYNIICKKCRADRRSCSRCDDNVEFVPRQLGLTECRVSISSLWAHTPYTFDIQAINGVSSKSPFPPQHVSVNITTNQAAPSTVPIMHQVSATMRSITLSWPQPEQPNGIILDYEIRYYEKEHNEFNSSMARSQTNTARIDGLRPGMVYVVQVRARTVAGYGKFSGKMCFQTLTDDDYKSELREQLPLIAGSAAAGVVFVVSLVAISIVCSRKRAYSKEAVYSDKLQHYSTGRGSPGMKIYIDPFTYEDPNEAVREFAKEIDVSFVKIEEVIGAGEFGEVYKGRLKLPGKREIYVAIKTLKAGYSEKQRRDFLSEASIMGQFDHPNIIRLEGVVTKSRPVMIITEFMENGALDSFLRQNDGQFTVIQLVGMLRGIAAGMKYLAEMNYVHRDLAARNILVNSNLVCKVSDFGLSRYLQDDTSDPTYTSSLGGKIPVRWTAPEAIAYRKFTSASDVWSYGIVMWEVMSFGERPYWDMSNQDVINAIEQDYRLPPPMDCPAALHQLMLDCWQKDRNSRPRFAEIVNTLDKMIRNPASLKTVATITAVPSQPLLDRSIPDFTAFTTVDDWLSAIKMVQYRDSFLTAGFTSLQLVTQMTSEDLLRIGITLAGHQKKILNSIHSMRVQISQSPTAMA
Source text: as §1

[9] = target: JNK3 (Homo sapiens, UniProt P53779); assay: Kinase panel, radiometric 33P filter binding; settings: read-out: % activity remaining
Source text: as §1

[10] = target: ULK2 (Homo sapiens, UniProt Q8IYT8); assay: Kinase panel, radiometric 33P filter binding; settings: read-out: % activity remaining
Source text: as §1

[11] = target: PAK5 (Homo sapiens, UniProt Q9P286); assay: Kinase panel, radiometric 33P filter binding; settings: read-out: % activity remaining
[12] = target: SYK (Homo sapiens, UniProt P43405); assay: Kinase panel, radiometric 33P filter binding; settings: read-out: % activity remaining
[13] = target: IRAK1 (Homo sapiens, UniProt P51617); assay: Kinase panel, radiometric 33P filter binding; settings: read-out: % activity remaining
[14] = target: MARK4 (Homo sapiens, UniProt Q96L34); assay: Kinase panel, radiometric 33P filter binding; settings: read-out: % activity remaining
Sequence of MARK4 (Q96L34 whole entry): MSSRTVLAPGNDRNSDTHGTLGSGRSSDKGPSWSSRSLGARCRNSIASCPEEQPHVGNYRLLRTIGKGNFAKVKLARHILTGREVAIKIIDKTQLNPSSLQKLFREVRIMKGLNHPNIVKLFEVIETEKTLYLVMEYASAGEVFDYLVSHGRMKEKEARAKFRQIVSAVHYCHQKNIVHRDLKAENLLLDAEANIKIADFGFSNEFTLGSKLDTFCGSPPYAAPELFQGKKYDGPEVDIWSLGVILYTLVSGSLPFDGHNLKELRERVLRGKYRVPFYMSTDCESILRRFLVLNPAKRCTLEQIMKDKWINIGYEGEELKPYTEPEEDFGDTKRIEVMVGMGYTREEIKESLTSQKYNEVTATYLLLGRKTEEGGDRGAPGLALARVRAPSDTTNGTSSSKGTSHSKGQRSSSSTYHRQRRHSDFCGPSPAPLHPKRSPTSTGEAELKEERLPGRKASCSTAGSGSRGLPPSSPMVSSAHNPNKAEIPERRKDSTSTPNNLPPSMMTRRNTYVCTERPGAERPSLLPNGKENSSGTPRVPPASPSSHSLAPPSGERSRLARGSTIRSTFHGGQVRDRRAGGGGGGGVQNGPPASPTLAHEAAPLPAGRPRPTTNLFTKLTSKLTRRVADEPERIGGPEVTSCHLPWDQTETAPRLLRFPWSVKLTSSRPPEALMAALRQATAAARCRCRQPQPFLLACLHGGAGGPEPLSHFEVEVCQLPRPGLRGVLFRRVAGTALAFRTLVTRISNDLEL
Source text: as §1

[15] = target: MARK2 (Homo sapiens, UniProt Q7KZI7); assay: Kinase panel, radiometric 33P filter binding; settings: read-out: % activity remaining
Sequence of MARK2 (Q7KZI7 whole entry): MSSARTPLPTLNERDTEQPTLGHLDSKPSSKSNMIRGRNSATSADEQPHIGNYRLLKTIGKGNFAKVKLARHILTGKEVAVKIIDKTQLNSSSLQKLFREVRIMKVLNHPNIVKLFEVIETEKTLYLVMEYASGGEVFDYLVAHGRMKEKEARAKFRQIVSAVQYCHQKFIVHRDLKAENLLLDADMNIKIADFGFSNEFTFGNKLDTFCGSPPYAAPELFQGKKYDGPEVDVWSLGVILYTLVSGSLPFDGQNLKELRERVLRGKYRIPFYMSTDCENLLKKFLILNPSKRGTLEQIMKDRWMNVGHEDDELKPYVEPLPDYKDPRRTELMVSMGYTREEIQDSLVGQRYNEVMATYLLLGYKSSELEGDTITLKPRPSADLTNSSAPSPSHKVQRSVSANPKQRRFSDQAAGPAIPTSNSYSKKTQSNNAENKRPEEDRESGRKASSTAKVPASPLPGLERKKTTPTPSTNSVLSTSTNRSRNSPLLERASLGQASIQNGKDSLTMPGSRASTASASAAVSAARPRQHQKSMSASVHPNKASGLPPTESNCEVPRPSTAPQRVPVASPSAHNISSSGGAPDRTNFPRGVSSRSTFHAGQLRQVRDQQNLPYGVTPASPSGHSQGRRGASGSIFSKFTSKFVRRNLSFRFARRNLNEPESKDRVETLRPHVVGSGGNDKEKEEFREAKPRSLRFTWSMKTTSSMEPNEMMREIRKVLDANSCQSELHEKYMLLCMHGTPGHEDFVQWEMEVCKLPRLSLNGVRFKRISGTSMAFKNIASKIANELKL
Source text: as §1

[16] = target: ERK1 (Homo sapiens, UniProt P27361); assay: Kinase panel, radiometric 33P filter binding; settings: read-out: % activity remaining
[17] = target: PAK6 (Homo sapiens, UniProt Q9NQU5); assay: Kinase panel, radiometric 33P filter binding; settings: read-out: % activity remaining
[18] = target: EPH-B4 (Homo sapiens, UniProt P54760); assay: Kinase panel, radiometric 33P filter binding; settings: read-out: % activity remaining
Source text: as §1

[19] = target: p38g MAPK (Homo sapiens, UniProt P53778); assay: Kinase panel, radiometric 33P filter binding; settings: read-out: % activity remaining
Source text: as §1

[20] = target: Src (Homo sapiens, UniProt P12931); assay: Kinase panel, radiometric 33P filter binding; settings: read-out: % activity remaining
[21] = target: p38a MAPK (Homo sapiens, UniProt Q16539); assay: Kinase panel, radiometric 33P filter binding; settings: read-out: % activity remaining
Sequence of p38a MAPK (Q16539 whole entry): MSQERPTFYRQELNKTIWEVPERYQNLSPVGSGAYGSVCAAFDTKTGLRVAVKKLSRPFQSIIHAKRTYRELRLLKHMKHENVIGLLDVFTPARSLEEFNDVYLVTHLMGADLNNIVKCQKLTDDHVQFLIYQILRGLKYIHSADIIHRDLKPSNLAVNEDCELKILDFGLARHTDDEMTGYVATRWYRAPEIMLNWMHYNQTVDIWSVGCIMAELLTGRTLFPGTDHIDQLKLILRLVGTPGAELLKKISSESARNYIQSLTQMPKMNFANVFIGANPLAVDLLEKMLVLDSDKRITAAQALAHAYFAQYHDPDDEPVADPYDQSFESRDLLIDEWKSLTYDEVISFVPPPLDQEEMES
Source text: as §1

[22] = target: MAP4K3 (Homo sapiens, UniProt Q8IVH8); assay: Kinase panel, radiometric 33P filter binding; settings: read-out: % activity remaining
Source text: as §1

[23] = target: MSK1 (Homo sapiens, UniProt O75582); assay: Kinase panel, radiometric 33P filter binding; settings: read-out: % activity remaining
[24] = target: IRR (Homo sapiens, UniProt P14616); assay: Kinase panel, radiometric 33P filter binding; settings: read-out: % activity remaining
Source text: as §1

[25] = target: PIM1 (Homo sapiens, UniProt P11309); assay: Kinase panel, radiometric 33P filter binding; settings: read-out: % activity remaining
Sequence of PIM1 (P11309 whole entry): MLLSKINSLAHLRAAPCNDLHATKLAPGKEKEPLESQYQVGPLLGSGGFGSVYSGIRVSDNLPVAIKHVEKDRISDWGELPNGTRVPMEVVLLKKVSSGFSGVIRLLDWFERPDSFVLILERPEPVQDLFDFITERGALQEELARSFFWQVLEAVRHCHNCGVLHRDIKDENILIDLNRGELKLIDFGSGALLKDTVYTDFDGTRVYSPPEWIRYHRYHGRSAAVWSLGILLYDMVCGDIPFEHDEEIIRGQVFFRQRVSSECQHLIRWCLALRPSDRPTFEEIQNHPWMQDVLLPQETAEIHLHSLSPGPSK
Source text: as §1
Kinase % activity remaining s.d.

[26] = target: NUAK1 (Homo sapiens, UniProt O60285); assay: Kinase panel, radiometric 33P filter binding; settings: read-out: % activity remaining
Source text: as §1
Kinase % activity remaining s.d.

[27] = target: EPH-A4 (Homo sapiens, UniProt P54764); assay: Kinase panel, radiometric 33P filter binding; settings: read-out: % activity remaining
Source text: as §1

[28] = target: JNK2 (Homo sapiens, UniProt P45984); assay: Kinase panel, radiometric 33P filter binding; settings: read-out: % activity remaining
Source text: as §1

[29] = target: PIM2 (Homo sapiens, UniProt Q9P1W9); assay: Kinase panel, radiometric 33P filter binding; settings: read-out: % activity remaining
Source text: as §1

[30] = target: EF2K (Homo sapiens, UniProt O00418); assay: Kinase panel, radiometric 33P filter binding; settings: read-out: % activity remaining
Source text: as §1

[31] = target: HIPK3 (Homo sapiens, UniProt Q9H422); assay: Kinase panel, radiometric 33P filter binding; settings: read-out: % activity remaining
Sequence of HIPK3 (Q9H422 whole entry): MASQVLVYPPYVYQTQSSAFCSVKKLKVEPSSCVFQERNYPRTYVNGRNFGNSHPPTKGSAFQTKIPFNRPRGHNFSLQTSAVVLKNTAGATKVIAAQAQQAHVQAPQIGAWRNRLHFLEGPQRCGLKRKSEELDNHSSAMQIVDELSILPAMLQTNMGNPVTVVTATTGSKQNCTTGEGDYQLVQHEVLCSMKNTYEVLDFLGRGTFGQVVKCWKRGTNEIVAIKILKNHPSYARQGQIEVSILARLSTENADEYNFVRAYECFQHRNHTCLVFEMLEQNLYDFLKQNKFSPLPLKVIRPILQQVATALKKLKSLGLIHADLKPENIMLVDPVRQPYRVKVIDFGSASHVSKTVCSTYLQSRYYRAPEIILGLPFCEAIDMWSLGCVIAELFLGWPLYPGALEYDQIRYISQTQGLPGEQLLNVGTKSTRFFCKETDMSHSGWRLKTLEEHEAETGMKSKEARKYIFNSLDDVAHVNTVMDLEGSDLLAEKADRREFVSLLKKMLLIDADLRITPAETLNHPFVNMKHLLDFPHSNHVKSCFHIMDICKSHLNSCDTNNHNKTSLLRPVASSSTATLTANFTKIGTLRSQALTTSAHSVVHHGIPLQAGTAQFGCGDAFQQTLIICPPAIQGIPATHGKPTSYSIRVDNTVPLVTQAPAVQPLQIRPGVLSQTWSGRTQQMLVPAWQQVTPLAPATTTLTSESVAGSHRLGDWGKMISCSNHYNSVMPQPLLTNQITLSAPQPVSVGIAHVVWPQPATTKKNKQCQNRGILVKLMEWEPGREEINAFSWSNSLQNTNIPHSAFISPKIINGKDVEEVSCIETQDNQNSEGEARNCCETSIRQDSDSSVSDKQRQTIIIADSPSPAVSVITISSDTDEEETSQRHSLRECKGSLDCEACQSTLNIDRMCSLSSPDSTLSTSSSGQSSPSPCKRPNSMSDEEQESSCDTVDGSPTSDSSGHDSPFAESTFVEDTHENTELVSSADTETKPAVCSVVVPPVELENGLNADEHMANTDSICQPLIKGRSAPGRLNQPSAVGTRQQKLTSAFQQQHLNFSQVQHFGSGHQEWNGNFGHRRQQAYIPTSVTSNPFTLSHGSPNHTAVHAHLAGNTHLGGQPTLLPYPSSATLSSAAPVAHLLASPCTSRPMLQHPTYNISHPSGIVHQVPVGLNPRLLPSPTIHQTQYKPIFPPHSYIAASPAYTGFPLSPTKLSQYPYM
Source text: as §1

[32] = target: CSK (Homo sapiens, UniProt P41240); assay: Kinase panel, radiometric 33P filter binding; settings: read-out: % activity remaining
Sequence of CSK (P41240 whole entry): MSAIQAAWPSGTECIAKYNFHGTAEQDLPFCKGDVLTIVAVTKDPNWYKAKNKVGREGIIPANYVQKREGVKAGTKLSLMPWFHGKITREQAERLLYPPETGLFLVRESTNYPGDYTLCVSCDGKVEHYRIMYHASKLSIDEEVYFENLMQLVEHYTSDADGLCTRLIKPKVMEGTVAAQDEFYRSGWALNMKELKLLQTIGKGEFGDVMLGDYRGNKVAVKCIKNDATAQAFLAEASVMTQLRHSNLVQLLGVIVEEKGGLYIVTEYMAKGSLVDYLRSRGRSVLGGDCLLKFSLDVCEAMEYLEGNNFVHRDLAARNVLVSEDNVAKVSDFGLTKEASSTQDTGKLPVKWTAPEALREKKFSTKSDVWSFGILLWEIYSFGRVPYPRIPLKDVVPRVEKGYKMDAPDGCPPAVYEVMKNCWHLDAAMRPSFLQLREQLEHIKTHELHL

[33] = target: BTK (Homo sapiens, UniProt Q06187); assay: Kinase panel, radiometric 33P filter binding; settings: read-out: % activity remaining
[34] = target: MKK2 (Homo sapiens, UniProt P36507); assay: Kinase panel, radiometric 33P filter binding; settings: read-out: % activity remaining
[35] = target: NEK2a (Homo sapiens, UniProt P51955); assay: Kinase panel, radiometric 33P filter binding; settings: read-out: % activity remaining
Source text: as §1

[36] = target: DYRK3 (Homo sapiens, UniProt O43781); assay: Kinase panel, radiometric 33P filter binding; settings: read-out: % activity remaining
Source text: as §1

[37] = target: FGF-R1 (Homo sapiens, UniProt P11362); assay: Kinase panel, radiometric 33P filter binding; settings: read-out: % activity remaining
Source text: as §1

[38] = target: MARK3 (Homo sapiens, UniProt P27448); assay: Kinase panel, radiometric 33P filter binding; settings: read-out: % activity remaining
Source text: as §1

Question: For `FC(F)(F)c1ccccc1-c1nc(NCc2cccs2)c2ccccc2n1` [Compound 1, NIH-12848, reference compound], which IC50 [1] is on record?
Answer: 2000 to 3000 nM

Question: For `CC(C)c1ccccc1-c1nc(NCc2ccccn2)c2c(ccn2C)n1` [Compound 40], which remaining activity at 10 µM [2] is on record?
Answer: 112%

Question: And the remaining activity at 10 µM [3]?
Answer: 97%

Question: What about the remaining activity at 10 µM [4] of the same compound?
Answer: 93%

Question: What about the remaining activity at 10 µM [5] of the same compound?
Answer: 89%

Question: What about the remaining activity at 10 µM [6] of the same compound?
Answer: 125%

Question: And the remaining activity at 10 µM [7]?
Answer: 120%

Question: What about the remaining activity at 10 µM [8] of the same compound?
Answer: 95%

Question: And the remaining activity at 10 µM [9]?
Answer: 97%

Question: What about the remaining activity at 10 µM [10] of the same compound?
Answer: 91%

Question: And the remaining activity at 10 µM [11]?
Answer: 120%

Question: And the remaining activity at 10 µM [12]?
Answer: 91%

Question: And the remaining activity at 10 µM [13]?
Answer: 114%

Question: And the remaining activity at 10 µM [14]?
Answer: 105%

Question: What about the remaining activity at 10 µM [15] of the same compound?
Answer: 101%

Question: And the remaining activity at 10 µM [16]?
Answer: 111%

Question: And the remaining activity at 10 µM [17]?
Answer: 95%

Question: And the remaining activity at 10 µM [18]?
Answer: 120%

Question: And the remaining activity at 10 µM [19]?
Answer: 105%

Question: And the remaining activity at 10 µM [20]?
Answer: 135%

Question: And the remaining activity at 10 µM [21]?
Answer: 100%

Question: What about the remaining activity at 10 µM [22] of the same compound?
Answer: 91%

Question: What about the remaining activity at 10 µM [23] of the same compound?
Answer: 95%

Question: And the remaining activity at 10 µM [24]?
Answer: 99%

Question: And the remaining activity at 10 µM [25]?
Answer: 102%

Question: And the remaining activity at 10 µM [26]?
Answer: 88%

Question: What about the remaining activity at 10 µM [27] of the same compound?
Answer: 96%

Question: What about the remaining activity at 10 µM [28] of the same compound?
Answer: 110%

Question: And the remaining activity at 10 µM [29]?
Answer: 110%

Question: What about the remaining activity at 10 µM [30] of the same compound?
Answer: 98%

Question: And the remaining activity at 10 µM [31]?
Answer: 92%

Question: And the remaining activity at 10 µM [32]?
Answer: 94%

Question: And the remaining activity at 10 µM [33]?
Answer: 111%

Question: And the remaining activity at 10 µM [34]?
Answer: 115%

Question: And the remaining activity at 10 µM [35]?
Answer: 103%

Question: And the remaining activity at 10 µM [36]?
Answer: 128%

Question: What about the remaining activity at 10 µM [37] of the same compound?
Answer: 92%

Question: What about the remaining activity at 10 µM [38] of the same compound?
Answer: 101%
